Counter-ions that a name gives are not always drawn.
Molecular target: T1, estrogen receptor (ER) (Homo sapiens, UniProt P03372)
T1 construct: expressed in transfected cells; host or cells: CHO cells (ribosome-free cytosol)
T1 sequence (P03372 1-595): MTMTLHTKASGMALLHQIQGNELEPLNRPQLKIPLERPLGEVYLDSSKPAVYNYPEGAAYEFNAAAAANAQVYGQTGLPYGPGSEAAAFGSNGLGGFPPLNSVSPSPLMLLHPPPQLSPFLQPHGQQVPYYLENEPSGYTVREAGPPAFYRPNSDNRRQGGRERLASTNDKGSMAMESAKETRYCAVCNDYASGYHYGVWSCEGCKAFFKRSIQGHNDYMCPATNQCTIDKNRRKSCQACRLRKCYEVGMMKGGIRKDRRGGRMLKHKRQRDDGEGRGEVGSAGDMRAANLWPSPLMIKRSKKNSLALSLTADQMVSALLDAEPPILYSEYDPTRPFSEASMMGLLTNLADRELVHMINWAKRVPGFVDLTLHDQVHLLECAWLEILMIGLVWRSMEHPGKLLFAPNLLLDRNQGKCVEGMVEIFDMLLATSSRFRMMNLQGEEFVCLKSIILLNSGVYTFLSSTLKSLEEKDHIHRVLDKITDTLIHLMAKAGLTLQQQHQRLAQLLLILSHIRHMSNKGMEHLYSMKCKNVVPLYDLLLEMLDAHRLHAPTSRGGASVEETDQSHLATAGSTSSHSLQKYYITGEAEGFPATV
Test: Receptor Binding Assay (competition with [3H]17β-estradiol)
Conditions: cytosol of CHO cells overexpressing the estrogen receptor; 0.8 nM [3H]17β-estradiol; 12 competitor concentrations; room temperature, 2.5 h

IC50 [nM] | Compound
800 | CC1(C)c2cc(O)ccc2N(Cc2ccc(OCCN3CCCCC3)cc2)C1c1ccccc1 (stereo not shown) [Example No. 4, 3,3-dimethyl-2-phenyl-1-[4-(2-piperidin-1-yl-ethoxy)-benzyl]-2,3-dihydro-1H-indol-5-ol (HCl)]
1000 | CC1(C)c2cc(O)ccc2N(Cc2ccc(OCCN3CCCCCC3)cc2)C1c1ccccc1 (stereo not shown) [Example No. 6, 1-[4-(2-Azepan-1-yl-ethoxy)-benzyl]-3,3-dimethyl-2-phenyl-2,3-dihydro-1H-indol-5-ol]
310 | CC1(C)c2cc(O)ccc2N(Cc2ccc(OCCN3CCCCC3)cc2)C1c1ccc(O)cc1 (stereo not shown) [Example No. 9, 2-(4-Hydroxy-phenyl)-3,3-dimethyl-1-[4-(2-piperidin-1-yl-ethoxy)-benzyl]-2,3-dihydro-1H-indol-5-ol]
350 | CC1(C)c2cc(O)ccc2N(Cc2ccc(OCCN3CCCCCC3)cc2)C1(c1ccccc1)c1ccc(O)cc1 (stereo not shown) [Example No. 11, 1-[4-(2-Azepan-1-yl-ethoxy)-benzyl]-2-(4-hydroxy-phenyl)-3,3-dimethyl-2-Phenyl-2,3-dihydro-1H-indol-5-ol]

Reference: patent EP1159267B1, “N-SUBSTITUTED INDOLINES AS ESTROGENIC AGENTS” (Wyeth, priority 1999, dated 2000)
